Data as given in paper PMC8869655, “Identification of the Kinase-Substrate Recognition Interface between MYPT1 and Rho-Kinase” (Biomolecules, 2022).
Residues, ends and D or L forms follow the SMILES beside them. No end group written: not given here.

B1: PS2 + DM2 synthetic peptide (MYPT1 836–860 aa) (peptide)
peptide: KSQPKSIRERRRPREKRRAAGVSFW
modifications: not fully specified
B2: PS1 + DM3 synthetic peptide (MYPT1 683–703 aa) (peptide)
peptide: RKARSRQARQSRRAAQGVTLT
modifications: not fully specified

Columns and labels:
[1] = biological target: T1, GST-Rho-kinase-cat-L (bovine, residues 6–553) (Bos taurus, UniProt Q28021); assay: In vitro kinase assay, Rho-kinase-cat-L activity; format: biochemical; conditions: for Inhibition of Rho-kinase-cat-L activity (in words) / IC50: S6 rsk substrate peptide as substrate, 50 μM γ-[32P]ATP, 30 °C, scintillation counting, N = 3; for Inhibition of Rho-kinase-cat-L activity (in words): inhibitor at the indicated concentrations; for IC50: 10–20 min, cation-exchange membrane
T1 construct: GST-Rho-kinase-cat-L (bovine, residues 6–553); made in house; host or cells: Sf9 cells (baculovirus)
T1 sequence (Q28021 6-553): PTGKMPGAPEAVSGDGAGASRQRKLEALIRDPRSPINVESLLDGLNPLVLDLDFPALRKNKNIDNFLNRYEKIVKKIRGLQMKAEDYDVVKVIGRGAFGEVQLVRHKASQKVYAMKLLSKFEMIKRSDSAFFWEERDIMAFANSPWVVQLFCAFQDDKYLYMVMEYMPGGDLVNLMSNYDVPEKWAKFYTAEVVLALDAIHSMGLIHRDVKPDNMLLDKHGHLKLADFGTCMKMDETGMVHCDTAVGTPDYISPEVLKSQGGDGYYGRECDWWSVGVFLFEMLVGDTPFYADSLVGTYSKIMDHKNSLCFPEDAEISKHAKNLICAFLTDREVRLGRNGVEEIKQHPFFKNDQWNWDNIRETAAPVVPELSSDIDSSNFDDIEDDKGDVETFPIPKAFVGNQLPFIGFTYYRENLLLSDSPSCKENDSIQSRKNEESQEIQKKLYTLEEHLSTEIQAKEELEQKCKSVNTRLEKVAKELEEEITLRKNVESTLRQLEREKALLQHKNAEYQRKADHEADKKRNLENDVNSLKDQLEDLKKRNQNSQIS
Procedure: The kinase reactions were performed in 50 μL of a reaction mixture (25 mM Tris-HCl, pH 7.5, 1 mM EDTA, 1 mM EGTA, 1 mM DTT, 5 mM MgCl2, and 50 μM γ-[^32P]ATP [1–20 GBq/mmol]), GST-Rho-kinase-cat-L or other kinases (1–10 nM), and substrates for 10–20 min at 30 °C. The reaction mixtures were applied to cation-exchange membranes and washed with 75 mM phosphoric acid three times, which was followed by scintillation counting.
Figure 4 Direct inhibition of Rho-kinase activity in vitro. (A) In vitro phosphorylation of S6 rsk substrate peptide by Rho-kinase. GST-Rho-kinase-cat-L or GST-ROCK1-cat-L activity was examined using the S6 rsk substrate peptide as a substrate in the presence of γ-[^32P]ATP. GST-MYPT1-684–868 aa-WT or -4A was added at the indicated concentrations. The reaction mixtures were applied onto cation-exchange membranes, followed by scintillation counting. N = 3. (B) Effects of the deletion of DMs on the inhibition of Rho-kinase activity in vitro. GST-Rho-kinase-cat-L activity was examined using the S6 rsk substrate peptide as a substrate in the presence of γ-[^32P]ATP. GST-MYPT1-684–868-4A with or without DMs was added at the indicated concentrations. The reaction mixtures were applied onto cation-exchange membranes, followed by scintillation counting. N = 3. The deletion of DM1 or DM2 moderately weakened the inhibitory effect and the deletion of both DM1 and DM2 completely abrogated the inhibitory effects of the MYPT1 fragment on the Rho-kinase activity. (C) Sequences of the DMs and phosphorylation sites of MYPT1. The sequences of MYPT1 683–715 aa and 836-860 aa and synthetic peptides are shown. Basic (blue), acidic (red), and aliphatic (green) amino acids within DMs are indicated. Phosphorylation sites are replaced by Ala in pseudosubstrate (PS) peptides. (D) Inhibition of Rho-kinase activity by PS2 + DM2 synthetic peptide. GST-Rho-kinase-cat-L activity was examined using the S6 rsk substrate peptide as a substrate in the presence of γ-[^32P]ATP. Synthetic peptides were added at the indicated concentrations. The reaction mixtures were applied onto cation-exchange membranes, followed by scintillation counting. N = 3. (E) Inhibition of Rho-kinase activity by PS1 + DM3 synthetic peptide. GST-Rho-kinase-cat-L activity was examined using the S6 rsk substrate peptide as a substrate in the presence of γ-[^32P]ATP. Synthetic peptides were added at the indicated concentrations. The reaction mixtures were applied onto cation-exchange membranes, followed by scintillation counting. N = 3.

[2] = biological target: T1, GST-Rho-kinase-cat-L (bovine, residues 6–553); assay: In vitro kinase assay, Rho-kinase-cat-L activity; format: biochemical; conditions: synthetic peptide at the indicated concentrations, Figure S4, N=3
[3] = biological target: GFP-Rho-kinase-cat-L (6–553 aa, long form of catalytic fragment) (bovine)

Molecule | Inhibition of Rho-kinase-cat-L activity (in words) [1] | IC50 [1] [nM] | further results
KSQPKSIRERRRPR [DM2, synthetic peptide, MYPT1 836–849 aa, docking motif 2] | moderately inhibited |  | 
QSRRAAQGVTLTDLQEAEKTIGRS [PS1 + DM1, synthetic peptide, MYPT1 692–715 aa, pseudosubstrate 1 plus docking motif 1] | did not show an inhibitory effect |  | Inhibition of Rho-kinase activity at higher concentration (in words) ([1]; 100 μM peptide, data not shown): mild inhibitory effect
CC[C@H](C)[C@H](NC(=O)[C@H](CO)NC(=O)[C@H](CCCCN)NC(=O)[C@@H]1CCCN1C(=O)[C@H](CCC(N)=O)NC(=O)[C@H](CO)NC(=O)[C@@H](N)CCCCN)C(=O)N[C@@H](CCCNC(=N)N)C(=O)N[C@@H](CCC(=O)O)C(=O)N[C@@H](CCCNC(=N)N)C(=O)N[C@@H](CCCNC(=N)N)C(=O)N[C@@H](CCCNC(=N)N)C(=O)N1CCC[C@H]1C(=O)N[C@@H](CCCNC(=N)N)C(=O)N[C@@H](CCC(=O)O)C(=O)N[C@@H](CCCCN)C(=O)N[C@@H](CCCNC(=N)N)C(=O)N[C@@H](CCCNC(=N)N)C(=O)N[C@@H](C)C(=O)N[C@@H](C)C(=O)NCC(=O)N[C@H](C(=O)N[C@@H](CO)C(=O)N[C@@H](Cc1ccccc1)C(=O)N[C@@H](Cc1c[nH]c2ccccc12)C(=O)O)C(C)C [PS2 + DM2] (H-KSQPKSIRERRRPREKRRAAGVSFW-OH; N-terminus and C-terminus assumed) | strongly inhibited | < 1000 | Inhibition of phosphorylation of MLC by Rho-kinase ([2]; substrate GST-MLC (1 µM)): inhibited; Inhibition of phosphorylation of MYPT1 by Rho-kinase ([2]; substrate GST-MYPT1-684-868 aa (0.5 µM)): inhibited; Inhibition of phosphorylation of Scrib by Rho-kinase ([2]; substrate GST-Scrib-C (1235-1630 aa) (1 µM)): inhibited
CC(C)C[C@H](NC(=O)[C@@H](NC(=O)[C@@H](NC(=O)CNC(=O)[C@H](CCC(N)=O)NC(=O)[C@H](C)NC(=O)[C@H](C)NC(=O)[C@H](CCCNC(=N)N)NC(=O)[C@H](CCCNC(=N)N)NC(=O)[C@H](CO)NC(=O)[C@H](CCC(N)=O)NC(=O)[C@H](CCCNC(=N)N)NC(=O)[C@H](C)NC(=O)[C@H](CCC(N)=O)NC(=O)[C@H](CCCNC(=N)N)NC(=O)[C@H](CO)NC(=O)[C@H](CCCNC(=N)N)NC(=O)[C@H](C)NC(=O)[C@H](CCCCN)NC(=O)[C@@H](N)CCCNC(=N)N)C(C)C)[C@@H](C)O)C(=O)N[C@H](C(=O)O)[C@@H](C)O [PS1 + DM3] (H-RKARSRQARQSRRAAQGVTLT-OH; N-terminus and C-terminus assumed) | inhibited Rho-kinase activity to a similar extent as PS2 + DM2 | < 1000 | 
B1 |  |  | IC50 of inhibition of the in vitro kinase activity of GST-Rho-kinase-cat-L on the S6 rsk substrate peptide (Figure 4D) [3]: < 1000 nM
B2 |  |  | IC50 of inhibition of the in vitro kinase activity of GST-Rho-kinase-cat-L on the S6 rsk substrate peptide (Figure 4E) [3]: < 1000 nM
